# What was measured:
# [1] = test system: human lung cancer cells (A549 tumor cell line); experiment: Biodistribution in lung tumor-bearing nude mice; format: in vivo, athymic nude mice; conditions: for Biodistribution Blood / Biodistribution Brain / Biodistribution Heart / Biodistribution Intestine / Biodistribution Kidney / Biodistribution Liver / Biodistribution Lung / Biodistribution Muscle / Biodistribution Spleen / Biodistribution Stomach / Biodistribution Thyroid / Biodistribution Tumor / Tumor/Blood / Tumor/Lung / Tumor/Muscle: intravenously
# Procedure: Female athymic nude mice (NCr-nu/nu, NCI, Bethasda, Md.) were inoculated with human lung cancer cells (A549 tumor cell line, 3×10^6 cells/mouse, intramuscular) by one author in the mid-dorsal region. After the tumor reached 6 mm, separate biodistribution studies using ^99mTc-EC-DG and 18F-FDG were conducted. Each received ^99mTc-EC-DG or 18F-FDG intravenously (n=3/time point). The injection activity was 1-3 μCi/mouse. The injected mass of ^99mTc-EC-DG was 0.2 mg/rodent.
# [2] = test system: RBA CRL-1747 mammary tumor; experiment: Biodistribution in mammary (breast) tumor-bearing rats; format: in vivo; conditions: iv
# Procedure: Biodistribution was assessed in mammary tumor-bearing rats (RBA CRL-1747, n=3/time interval, iv). Studies were performed 14 to 17 days after implantation when tumors reached approximately 1 cm in diameter. Following administration of the radiotracer, rats were sacrificed at 0.5-4 hrs. The selected tissues were excised, weighed and counted for radioactivity by using a gamma counter (Packard Instruments, Downers Grove, Ill.). The biodistribution of tracer in each sample was calculated as percentage of the injected dose per gram of tissue wet weight (% ID/g).
# Biodistribution was assessed in breast tumor-bearing rats (RBA CRL-1747, n=3/time interval, iv). Studies were performed 14 to 17 days after implantation when tumors reached approximately 1 cm in diameter. Following administration of the radiotracer, rats were sacrificed at 0.5-4 hrs. The selected tissues were excised, weighed and counted for radioactivity by using a gamma counter (Packard Instruments, Downers Grove, Ill.). The biodistribution of tracer in each sample was calculated as percentage of the injected dose per gram of tissue wet weight (% ID/g).
smiles,measurement,setting,value
"OC[C@H]1OC(O)[C@H]([18F])[C@@H](O)[C@@H]1O (some centres unmarked) [^18FDG, [^18F]fluorodeoxyglucose, reference compound]",Biodistribution Blood,[1]; 30 min,0.793 ± 0.067 % of injected dose per gram of tissue weight
same,Biodistribution Brain,[1]; 30 min,6.557 ± 0.390 % of injected dose per gram of tissue weight
same,Biodistribution Heart,[1]; 30 min,11.94 ± 2.571 % of injected dose per gram of tissue weight
same,Biodistribution Intestine,[1]; 30 min,2.322 ± 0.542 % of injected dose per gram of tissue weight
same,Biodistribution Kidney,[1]; 30 min,1.137 ± 0.117 % of injected dose per gram of tissue weight
same,Biodistribution Liver,[1]; 30 min,1.051 ± 0.057 % of injected dose per gram of tissue weight
same,Biodistribution Lung,[1]; 30 min,2.490 ± 0.209 % of injected dose per gram of tissue weight
same,Biodistribution Muscle,[1]; 30 min,4.876 ± 0.621 % of injected dose per gram of tissue weight
same,Biodistribution Spleen,[1]; 30 min,1.824 ± 0.196 % of injected dose per gram of tissue weight
same,Biodistribution Stomach,[1]; 30 min,5.046 ± 0.461 % of injected dose per gram of tissue weight
same,Biodistribution Thyroid,[1]; 30 min,4.490 ± 0.526 % of injected dose per gram of tissue weight
same,Biodistribution Tumor,[1]; 30 min,2.226 ± 0.150 % of injected dose per gram of tissue weight
same,Tumor/Blood,[1]; 30 min,2.821 ± 0.144
same,Tumor/Lung,[1]; 30 min,0.912 ± 0.119
same,Tumor/Muscle,[1]; 30 min,0.463 ± 0.026
same,Biodistribution Blood,[1]; 2 h,0.236 ± 0.009 % of injected dose per gram of tissue weight
same,Biodistribution Brain,[1]; 2 h,3.113 ± 0.132 % of injected dose per gram of tissue weight
same,Biodistribution Heart,[1]; 2 h,20.33 ± 7.675 % of injected dose per gram of tissue weight
same,Biodistribution Intestine,[1]; 2 h,2.764 ± 0.496 % of injected dose per gram of tissue weight
same,Biodistribution Kidney,[1]; 2 h,0.553 ± 0.104 % of injected dose per gram of tissue weight
same,Biodistribution Liver,[1]; 2 h,0.586 ± 0.040 % of injected dose per gram of tissue weight
same,Biodistribution Lung,[1]; 2 h,2.222 ± 0.137 % of injected dose per gram of tissue weight
same,Biodistribution Muscle,[1]; 2 h,5.409 ± 0.611 % of injected dose per gram of tissue weight
same,Biodistribution Spleen,[1]; 2 h,1.903 ± 0.144 % of injected dose per gram of tissue weight
same,Biodistribution Stomach,[1]; 2 h,4.374 ± 0.864 % of injected dose per gram of tissue weight
same,Biodistribution Thyroid,[1]; 2 h,4.617 ± 0.400 % of injected dose per gram of tissue weight
same,Biodistribution Tumor,[1]; 2 h,1.699 ± 0.172 % of injected dose per gram of tissue weight
same,Tumor/Blood,[1]; 2 h,7.261 ± 1.007
same,Tumor/Lung,[1]; 2 h,0.775 ± 0.113
same,Tumor/Muscle,[1]; 2 h,0.319 ± 0.031
same,Biodistribution Blood,[1]; 4 h,0.203 ± 0.062 % of injected dose per gram of tissue weight
same,Biodistribution Brain,[1]; 4 h,2.065 ± 0.080 % of injected dose per gram of tissue weight
same,Biodistribution Heart,[1]; 4 h,19.35 ± 8.286 % of injected dose per gram of tissue weight
same,Biodistribution Intestine,[1]; 4 h,1.562 ± 0.342 % of injected dose per gram of tissue weight
same,Biodistribution Kidney,[1]; 4 h,0.568 ± 0.027 % of injected dose per gram of tissue weight
same,Biodistribution Liver,[1]; 4 h,0.785 ± 0.039 % of injected dose per gram of tissue weight
same,Biodistribution Lung,[1]; 4 h,2.280 ± 0.182 % of injected dose per gram of tissue weight
same,Biodistribution Muscle,[1]; 4 h,4.743 ± 0.610 % of injected dose per gram of tissue weight
same,Biodistribution Spleen,[1]; 4 h,1.591 ± 0.161 % of injected dose per gram of tissue weight
same,Biodistribution Stomach,[1]; 4 h,2.278 ± 0.455 % of injected dose per gram of tissue weight
same,Biodistribution Thyroid,[1]; 4 h,4.424 ± 0.442 % of injected dose per gram of tissue weight
same,Biodistribution Tumor,[1]; 4 h,1.606 ± 0.182 % of injected dose per gram of tissue weight
same,Tumor/Blood,[1]; 4 h,8.932 ± 1.973
same,Tumor/Lung,[1]; 4 h,0.717 ± 0.106
same,Tumor/Muscle,[1]; 4 h,0.346 ± 0.048
same,"tumor/blood ratios, 18F-FDG versus ^99mTc-EC-DG","[1]; mouse, in vivo",higher tumor/blood ratios
"O=C(O)[C@@H]1C[S][99Tc]23(=[O])[S]C[C@@H](C(=O)O)[N]2CC[N]13 [^99mTc-EC, ^99mTc-L,L-ethylenedicysteine, reference compound]",Biodistribution Blood,[2]; 1 Hour,0.273 ± 0.039 % ID/g
same,Biodistribution Intestine,[2]; 1 Hour,0.787 ± 0.106 % ID/g
same,Biodistribution Kidney,[2]; 1 Hour,8.991 ± 0.268 % ID/g
same,Biodistribution Liver,[2]; 1 Hour,0.367 ± 0.006 % ID/g
same,Biodistribution Lung,[2]; 1 Hour,0.187 ± 0.029 % ID/g
same,Biodistribution Muscle,[2]; 1 Hour,0.043 ± 0.002 % ID/g
same,Biodistribution Stomach,[2]; 1 Hour,0.127 ± 0.106 % ID/g
same,Biodistribution Thyroid,[2]; 1 Hour,0.229 ± 0.118 % ID/g
same,Biodistribution Tumor,[2]; 1 Hour,0.149 ± 0.020 % ID/g
same,Biodistribution Urine,[2]; 1 Hour,11.045 ± 6.158 % ID/g
same,Tumor/Blood,[2]; 1 Hour,0.544 ± 0.004
same,Tumor/Lung,[2]; 1 Hour,0.797 ± 0.022
same,Tumor/Muscle,[2]; 1 Hour,3.414 ± 0.325
same,Biodistribution Blood,[2]; 2 Hour,0.211 ± 0.001 % ID/g
same,Biodistribution Intestine,[2]; 2 Hour,0.401 ± 0.093 % ID/g
same,Biodistribution Kidney,[2]; 2 Hour,9.116 ± 0.053 % ID/g
same,Biodistribution Liver,[2]; 2 Hour,0.286 ± 0.073 % ID/g
same,Biodistribution Lung,[2]; 2 Hour,0.144 ± 0.002 % ID/g
same,Biodistribution Muscle,[2]; 2 Hour,0.028 ± 0.009 % ID/g
same,Biodistribution Stomach,[2]; 2 Hour,0.037 ± 0.027 % ID/g
same,Biodistribution Thyroid,[2]; 2 Hour,0.106 ± 0.003 % ID/g
same,Biodistribution Tumor,[2]; 2 Hour,0.115 ± 0.002 % ID/g
same,Biodistribution Urine,[2]; 2 Hour,13.192 ± 4.505 % ID/g
same,Tumor/Blood,[2]; 2 Hour,0.546 ± 0.010
same,Tumor/Lung,[2]; 2 Hour,0.797 ± 0.002
same,Tumor/Muscle,[2]; 2 Hour,4.425 ± 1.397
same,Biodistribution Blood,[2]; 4 Hour,0.149 ± 0.008 % ID/g
same,Biodistribution Intestine,[2]; 4 Hour,0.103 ± 0.009 % ID/g
same,Biodistribution Kidney,[2]; 4 Hour,7.834 ± 1.018 % ID/g
same,Biodistribution Liver,[2]; 4 Hour,0.234 ± 0.016 % ID/g
same,Biodistribution Lung,[2]; 4 Hour,0.120 ± 0.012 % ID/g
same,Biodistribution Muscle,[2]; 4 Hour,0.019 ± 0.001 % ID/g
same,Biodistribution Stomach,[2]; 4 Hour,0.043 ± 0.014 % ID/g
same,Biodistribution Thyroid,[2]; 4 Hour,0.082 ± 0.005 % ID/g
same,Biodistribution Tumor,[2]; 4 Hour,0.096 ± 0.005 % ID/g
same,Biodistribution Urine,[2]; 4 Hour,8.693 ± 2.981 % ID/g
same,Tumor/Blood,[2]; 4 Hour,0.649 ± 0.005
same,Tumor/Lung,[2]; 4 Hour,0.798 ± 0.007
same,Tumor/Muscle,[2]; 4 Hour,5.093 ± 0.223
same,Biodistribution Blood,[2]; 30 Min.,0.435 ± 0.29 % ID/g
same,Biodistribution Intestine,[2]; 30 Min.,0.173 ± 0.029 % ID/g
same,Biodistribution Kidney,[2]; 30 Min.,7.914 ± 0.896 % ID/g
same,Biodistribution Liver,[2]; 30 Min.,0.508 ± 0.062 % ID/g
same,Biodistribution Lung,[2]; 30 Min.,0.272 ± 0.019 % ID/g
same,Biodistribution Muscle,[2]; 30 Min.,0.060 ± 0.006 % ID/g
same,Biodistribution Stomach,[2]; 30 Min.,0.136 ± 0.060 % ID/g
same,Biodistribution Thyroid,[2]; 30 Min.,0.219 ± 0.036 % ID/g
same,Biodistribution Tumor,[2]; 30 Min.,0.342 ± 0.163 % ID/g
same,Biodistribution Urine,[2]; 30 Min.,9.124 ± 0.808 % ID/g
same,Tumor/Blood,[2]; 30 Min.,0.776 ± 0.322
same,Tumor/Lung,[2]; 30 Min.,1.256 ± 0.430
same,Tumor/Muscle,[2]; 30 Min.,5.841 ± 3.253

# — patent US20040166058A1, “Ethylenedicysteine (EC)-drug conjugates, compositions and methods for tissue specific disease imaging” (Board of Regents, The University of Texas System, priority 2002, published 2004)
